Source: US8563588B2, “Imidazolone derivatives, method for the preparation thereof and biological applications” (Universite de Rennes 1, priority 2007, dated 2013)
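Further: GST fusion rat DYRK1A made in E. coli, scintillation counting of label bound to substrate, activity as percent of the inhibitor-free maximum after blank subtraction.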

What follows are compounds tested against Rat recombinant DYRK1A (Rattus norvegicus, UniProt Q63470) (assay: Assaying of the kinase activity of DYRK1A (33P-ATP, myelin basic protein, P81 filter)). Conditions: 15 μM ATP, 30° C., 30 min; read-out: IC50 DYRK1A.
Assay type: biochemical
Experimental: Rat recombinant DYRK1A was expressed in E. coli as a GST fusion protein. It was purified by affinity chromatography on beads of immobilized glutathione (elution with free glutathione). […] After incubation at 30° C. for 30 min, 25-μL aliquots of supernatant were spotted onto Whatman P81 phosphocellulose filters and the filters were washed five times in a solution of phosphoric acid (10 ml/L water). The radioactivity incorporated into the substrate, retained on the moist filters, was then counted in the presence of ACS scintillation fluid (Amersham). The control values were subtracted and the activities were expressed as % of the maximum value, i.e. the value obtained in the absence of inhibitors. The IC50 values were calculated from dose-response curves and are given in μM.
For `CN1C(=O)/C(=C/c2ccc3c(c2)OCO3)N=C1c1ccccc1` [NL39, (5Z)-5-(1,3-Benzodioxol-5-ylmethylene)-3-methyl-2-phenyl-3,5-dihydro-4H-imidazol-4-one], the IC50 was 3.2 µM. In the case of `CN1C(=O)/C(=C/c2ccc3c(c2)OCO3)N=C1Nc1ccccc1` [MADE32], the IC50 is reported as 0.4 µM. `CCSC1=N/C(=C\c2ccc(O)c(OC)c2)C(=O)N1` [ST240] showed an IC50 of 2.6 µM. Compound `COC(CNC1=N/C(=C\c2ccc3c(c2)OCO3)C(=O)N1C)OC` [MADE10] has an IC50 of 1.4 µM. Compound `O=C1NC(Nc2ccc(O)cc2)=N/C1=C\c1ccc2c(c1)OCO2` [MADE48] has an IC50 of 0.084 µM. `COc1cc(/C=C2\N=C(SC)N(C)C2=O)cc(OC)c1OC` [JR161] showed an IC50 greater than 10 µM. `CCCNC1=N/C(=C\c2ccc3c(c2)OC(F)(F)O3)C(=O)N1C` [ST092] was tested, and the IC50 was greater than 10 µM. `CCCNC1=N/C(=C\c2cc(OC)c(OC)c(OC)c2)C(=O)N1C` [FCFD14] showed an IC50 greater than 10 µM. For `C=CCSC1=N/C(=C\c2ccc3c(c2)OCO3)C(=O)N1C` [SB14], the IC50 was 3.4 µM. With `COc1cc(/C=C2\NC(=S)NC2=O)ccc1O` [ST202] the IC50 was greater than 10 µM. Work on `CN1C(=O)/C(=C/c2ccc3c(c2)OCO3)N=C1NCCO` [MADE40] yielded an IC50 of 0.73 µM. For `O=C1/C(=C/c2ccc3c(c2)OCO3)NC(=S)N1c1ccccc1` [JR370], the IC50 was greater than 10 µM. `CCCNC1=N/C(=C\c2ccc3c(c2)OCO3)C(=O)N1` [FC126] showed an IC50 of 0.89 µM. `CN1C(=O)/C(=C/c2ccc3c(c2)OCO3)N=C1Nc1ccc(CC(=O)O)cc1` [MADE34] was tested, and the IC50 was 0.86 µM. Compound `CN1C(=O)/C(=C/c2ccc3c(c2)OCO3)N=C1NCC1CC1` [FC107] has an IC50 of 0.98 µM. `CN1C(=O)/C(=C/c2ccc3c(c2)OCO3)N=C1NC(=O)Cc1ccccc1` [IA25] gave an IC50 greater than 10 µM. Compound `CCCCN1C(=O)/C(=C/c2ccc(OC)c(OC)c2)N=C1SCC` [SB58] has an IC50 greater than 10 µM. In the case of `CSC1=N/C(=C\c2ccc3c(c2)OCO3)C(=O)N1C` [ST099], the IC50 is reported as 6.8 µM. In the case of `CCCCN1C(=O)/C(=C/c2ccc3c(c2)OCO3)N=C1NCCCO` [SA164], the IC50 is reported as greater than 10 µM. `CC(C)NC1=N/C(=C\c2ccccc2)C(=O)N1C` [FC095] gave an IC50 greater than 10 µM. For `CNC1=N/C(=C\c2ccc3c(c2)OCO3)C(=O)N1` [FC085], the IC50 was 1.7 µM. In the case of `COCCSC1=N/C(=C\c2ccc3c(c2)OCO3)C(=O)N1` [ST164], the IC50 is reported as 0.65 µM. In the case of `O=C1NC(SCC2CC2)=N/C1=C\c1ccc2c(c1)OCO2` [ST130], the IC50 is reported as 0.5 µM. `CN1C(=O)/C(=C/c2ccc3c(c2)OCO3)N=C1Nc1cccc(CO)c1` [MADE37] gave an IC50 of 0.23 µM. `CCSC1=N/C(=C\c2ccc3c(c2)OCO3)C(=O)N1C` [SB26, (5Z)-5-(1,3-benzodioxol-5-ylmethylene)-3-methyl-2-(ethylthio)-3,5-dihydro-4H-imidazol-4-one] showed an IC50 of 1.4 µM. `CCCCN1C(=O)/C(=C/c2ccc3c(c2)OCO3)N=C1SCc1ccccc1` [SB10] gave an IC50 greater than 10 µM. With `CCSC1=N/C(=C\c2cc(Br)c3c(c2)OCO3)C(=O)N1C` [ST342] the IC50 was greater than 10 µM. `CN1C(=O)/C(=C/c2ccc3c(c2)OCO3)N=C1NC(=O)c1ccccc1` [IA33] was tested, and the IC50 was greater than 10 µM. `COCCNC1=N/C(=C\c2ccc3c(c2)OCO3)C(=O)N1C` [FC103] was tested, and the IC50 was 1.2 µM. `CCCCN1C(=O)/C(=C/c2ccc3c(c2)OCO3)N=C1SC` [JR448] gave an IC50 greater than 10 µM. Compound `COc1cc(/C=C2\NC(=S)NC2=O)cc(Br)c1O` [ST229] has an IC50 of 65 µM. With `CCCCN1C(=O)/C(=C/c2ccc3c(c2)OCO3)N=C1SCc1ccc([N+](=O)[O-])cc1` [SB60] the IC50 was greater than 10 µM. Work on `O=C1NC(NCC2CC2)=N/C1=C\c1ccc2c(c1)OCO2` [FC114] yielded an IC50 of 0.5 µM. Work on `CCCNC1=N/C(=C\c2ccc3c(c2)OCO3)C(=O)N1C` [FCJR405, (5Z)-5-Benzo[1,3]dioxol-5-ylmethylene-3-methyl-2-propylamino-3,5-dihydroimidazol-4-one] yielded an IC50 of 2.3 µM. Compound `CCNC1=N/C(=C\c2ccc3c(c2)OCO3)C(=O)N1` [FC090, (5Z)-5-Benzo[1,3]dioxol-5-ylmethylene-2-ethylamino-3,5-dihydro-4H-imidazol-4-one] has an IC50 of 1.1 µM. `C=CC(=O)NC1=N/C(=C\c2ccc3c(c2)OCO3)C(=O)N1C` [IA32] gave an IC50 of 15 µM. Work on `CCSC1=N/C(=C\c2ccc(O)c(OC)c2)C(=O)N1C` [ST170] yielded an IC50 greater than 10 µM. `CCCCSC1=N/C(=C\c2ccc3c(c2)OCO3)C(=O)N1C` [ST101] was tested, and the IC50 was 2.3 µM. Work on `O=C1NC(=S)N/C1=C\c1c[nH]c2ccccc12` [ST195] yielded an IC50 greater than 10 µM. Work on `CN1C(=O)/C(=C/c2ccc(O)cc2)NC1=S` [ST076] yielded an IC50 greater than 10 µM. `CN1C(=O)/C(=C/c2ccc3c(c2)OCO3)N=C1Nc1ccc2c(c1)OCCO2` [MADE29] showed an IC50 of 0.19 µM. With `C=CCSC1=N/C(=C\c2ccc3c(c2)OCO3)C(=O)N1CCCC` [SB25] the IC50 was greater than 10 µM. `CCCSC1=N/C(=C\c2ccc3c(c2)OCO3)C(=O)N1` [ST122] gave an IC50 of 0.44 µM. Work on `CN1C(=O)/C(=C/c2ccc3c(c2)OCO3)N=C1Nc1ccc(O)cc1` [MADE8] yielded an IC50 of 0.38 µM. Compound `O=C1NC(SCC2CCC2)=N/C1=C\c1ccc2c(c1)OCO2` [ST142] has an IC50 of 0.78 µM. `CC(=O)NC1=N/C(=C\c2ccc3c(c2)OCO3)C(=O)N1C` [IA24] was tested, and the IC50 was greater than 10 µM. Compound `CSC1=N/C(=C\c2ccccc2O)C(=O)N1C` [JR159] has an IC50 greater than 10 µM. `CCNC1=N/C(=C\c2ccc3c(c2)OCO3)C(=O)N1C` [FC088] showed an IC50 of 0.9 µM. Work on `CN1C(=O)/C(=C/c2ccc3c(c2)OCO3)N=C1Nc1ccccc1` [MADE42] yielded an IC50 of 0.43 µM. Compound `CN1C(=O)/C(=C/c2ccc3c(c2)OC(F)(F)O3)NC1=S` [ST089] has an IC50 greater than 10 µM. `CN1C(=O)/C(=C/c2ccc3c(c2)OCO3)N=C1NC(=O)C(C)(C)C` [IA31] showed an IC50 of 3.4 µM. Compound `O=C1NC(Nc2ccccc2)=N/C1=C\c1ccc2c(c1)OCO2` [MADE44] has an IC50 of 0.071 µM. Work on `O=C1NC(=S)N/C1=C\c1ccc(O)c(O)c1` [ST227] yielded an IC50 of 66 µM. `CC(O)c1cccc(NC2=N/C(=C\c3ccc4c(c3)OCO4)C(=O)N2C)c1` (racemic) [MADE36] was tested, and the IC50 was 0.26 µM. Compound `CSC1=N/C(=C\c2ccc3c(c2)OCO3)C(=O)N1` [ST105] has an IC50 of 0.68 µM. For `CCOC(=O)CSC1=N/C(=C\c2ccc3c(c2)OCO3)C(=O)N1C` [JR404], the IC50 was 5.8 µM. Compound `O=C1NC(=S)N/C1=C\c1cc(Br)c2c(c1)OCO2` [ST279] has an IC50 greater than 10 µM. `CCOC(=O)CSC1=N/C(=C\c2ccc3c(c2)OCO3)C(=O)N1c1ccccc1` [JR411] was tested, and the IC50 was greater than 10 µM. `CN1C(=O)/C(=C/c2ccc3c(c2)OCO3)N=C1Nc1ccc(O)c(C(=O)O)c1` [MADE33] showed an IC50 of 0.94 µM. `COC(=O)NCCNC1=N/C(=C\c2ccc3c(c2)OCO3)C(=O)N1C` [MADE24] gave an IC50 greater than 10 µM. Compound `CCCCNC1=N/C(=C\c2ccc3c(c2)OCO3)C(=O)N1CCCC` [FCJR464] has an IC50 greater than 10 µM. Work on `CCSC1=N/C(=C\c2ccc(OC)c(OC)c2)C(=O)N1C` [SB55] yielded an IC50 greater than 10 µM. `CSC1=N/C(=C\c2ccc(Br)cc2)C(=O)N1C` [JR162] was tested, and the IC50 was greater than 10 µM. Work on `CC(C)SC1=N/C(=C\c2ccc3c(c2)OCO3)C(=O)N1` [ST135] yielded an IC50 of 0.46 µM. `CCSC1=N/C(=C\c2ccc(O)c(O)c2)C(=O)N1` [ST286] showed an IC50 greater than 10 µM. For `NC1=N/C(=C\c2ccc(O)c(O)c2)C(=O)N1` [ST326], the IC50 was greater than 10 µM. For `COc1cc(/C=C2\N=C(N)NC2=O)ccc1O` [ST325], the IC50 was 0.17 µM. `CN1C(=O)/C(=C/c2ccc3c(c2)OCO3)N=C1Nc1ccc2c(c1)OCO2` [MADE30] gave an IC50 of 0.37 µM. In the case of `CC(C)CCNC1=N/C(=C\c2ccc3c(c2)OCO3)C(=O)N1C` [ST025], the IC50 is reported as 1.7 µM. Work on `CN1C(=O)/C(=C/c2cc(Br)c3c(c2)OCO3)NC1=S` [ST341] yielded an IC50 greater than 10 µM. With `CCCCN1C(=O)/C(=C/c2ccc3c(c2)OCO3)NC1=S` [JR361] the IC50 was greater than 10 µM. `CN1C(=O)/C(=C/c2ccc3c(c2)OCO3)N=C1SCc1ccccc1` [SB28] gave an IC50 of 5.7 µM. In the case of `C#CCSC1=N/C(=C\c2ccc3c(c2)OCO3)C(=O)N1C` [SB16], the IC50 is reported as 0.9 µM. For `CN1C(=O)/C(=C/c2ccc3c(c2)OCO3)N=C1c1ccc(O)cc1` [NL96], the IC50 was 0.43 µM. With `CCCCSC1=N/C(=C\c2ccc3c(c2)OCO3)C(=O)N1` [ST124] the IC50 was 0.59 µM. `CCSC1=N/C(=C\c2ccc3c(c2)OC(F)(F)O3)C(=O)N1C` [ST091] was tested, and the IC50 was greater than 10 µM. In the case of `CN1C(=O)/C(=C/c2ccc3c(c2)OCO3)N=C1Nc1ccccc1O` [MADE9], the IC50 is reported as 0.69 µM. With `CSC1=N/C(=C\c2ccccn2)C(=O)N1C` [JR160] the IC50 was greater than 10 µM. In the case of `CCCNC1=N/C(=C\c2ccccc2)C(=O)N1C` [FCFD08], the IC50 is reported as greater than 10 µM. Compound `CCCCN1C(=O)/C(=C/c2ccc3c(c2)OCO3)N=C1SCC` [SB05] has an IC50 greater than 10 µM. `COCCSC1=N/C(=C\c2ccc3c(c2)OCO3)C(=O)N1C` [SA197] was tested, and the IC50 was 2.5 µM. Compound `CCCCNC1=N/C(=C\c2ccc3c(c2)OCO3)C(=O)N1C` [FCJR457] has an IC50 of 1.8 µM. Compound `C#CCSC1=N/C(=C\c2ccc3c(c2)OCO3)C(=O)N1CCCC` [SB22] has an IC50 greater than 10 µM. `CSC1=N/C(=C\c2ccccc2)C(=O)N1C` [JR158] gave an IC50 greater than 10 µM. Work on `C=CCNC1=N/C(=C\c2ccc3c(c2)OCO3)C(=O)N1C` [FCFD13] yielded an IC50 of 1.6 µM. With `CCCCSC1=N/C(=C\c2c[nH]c3ccccc23)C(=O)N1C` [FB17] the IC50 was greater than 10 µM. For `COc1cc(/C=C2\N=C(NC(C)C)N(C)C2=O)cc(OC)c1OC` [FC104b], the IC50 was greater than 10 µM. Compound `CC(C)SC1=N/C(=C\c2ccc3c(c2)OCO3)C(=O)N1C` [ST097] has an IC50 of 1.3 µM. `CN1C(=O)/C(=C/c2ccc3c(c2)OCO3)N=C1SCC#N` [ST211] was tested, and the IC50 was 0.47 µM. Work on `CCCSC1=N/C(=C\c2c[nH]c3ccccc23)C(=O)N1C` [FB14] yielded an IC50 greater than 10 µM. With `CN1C(=O)/C(=C/c2ccc3c(c2)OCO3)NC1=S` [ST223] the IC50 was greater than 10 µM. `CN1C(=O)/C(=C/c2ccc3c(c2)OCO3)N=C1NCCCO` [SA142] gave an IC50 of 1.3 µM. `CN1C(=O)/C(=C/c2ccc3c(c2)OCO3)N=C1NCc1ccc2c(c1)OCO2` [MADE12] was tested, and the IC50 was 4.6 µM. `CC(C)CNC1=N/C(=C\c2ccc3c(c2)OCO3)C(=O)N1C` [FCFD24] gave an IC50 greater than 10 µM. With `CN1C(=O)C(=Cc2c[nH]c3ccccc23)NC1=S` [ST197] the IC50 was greater than 10 µM. `CCSC1=N/C(=C\c2cc(OC)cc(OC)c2)C(=O)N1C` [SB56] showed an IC50 greater than 10 µM.

Same assay, conditions: IC50 DYRK1A
`COc1ccc(NC2=N/C(=C\c3ccc4c(c3)OCO4)C(=O)N2C)cc1` [MADE39] gave an IC50 of 0.27 µM.

Same assay, conditions: IC50 DYRK1A, 15 μM ATP, 30° C., 30 min
`CC(C)NC1=N/C(=C\c2ccc3c(c2)OCO3)C(=O)N1C` [FCJR232] gave an IC50 of 1.3 µM.
